Reference: ChEMBL document CHEMBL1201862, “PubChem BioAssay data set” (2004)
“And” between values parts separate entries of the source, which are not always exact repeats. Equal entries are not always repeated. One block for each molecule: values may come before it. The source made the active and inactive calls.

Experiments:
[1] = target: Eukaryotic translation initiation factor 4E (Mus musculus, UniProt P63073); experiment: blockers of eIF4G binding by eIF4E – biochemical, TR-FRET, dose response (AID 855); assay type: functional;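 also: potency for disrupting eIF4E binding to eIF4GI seen as loss of FRET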
[2] = target: T1, Hexokinase HKDC1 (Homo sapiens, UniProt Q2TB90); experiment: inhibition of HKDC1 glucose phosphorylation – biochemical, W721R variant, dose response (AID 504729); assay type: functional
T1 sequence (Q2TB90 whole entry): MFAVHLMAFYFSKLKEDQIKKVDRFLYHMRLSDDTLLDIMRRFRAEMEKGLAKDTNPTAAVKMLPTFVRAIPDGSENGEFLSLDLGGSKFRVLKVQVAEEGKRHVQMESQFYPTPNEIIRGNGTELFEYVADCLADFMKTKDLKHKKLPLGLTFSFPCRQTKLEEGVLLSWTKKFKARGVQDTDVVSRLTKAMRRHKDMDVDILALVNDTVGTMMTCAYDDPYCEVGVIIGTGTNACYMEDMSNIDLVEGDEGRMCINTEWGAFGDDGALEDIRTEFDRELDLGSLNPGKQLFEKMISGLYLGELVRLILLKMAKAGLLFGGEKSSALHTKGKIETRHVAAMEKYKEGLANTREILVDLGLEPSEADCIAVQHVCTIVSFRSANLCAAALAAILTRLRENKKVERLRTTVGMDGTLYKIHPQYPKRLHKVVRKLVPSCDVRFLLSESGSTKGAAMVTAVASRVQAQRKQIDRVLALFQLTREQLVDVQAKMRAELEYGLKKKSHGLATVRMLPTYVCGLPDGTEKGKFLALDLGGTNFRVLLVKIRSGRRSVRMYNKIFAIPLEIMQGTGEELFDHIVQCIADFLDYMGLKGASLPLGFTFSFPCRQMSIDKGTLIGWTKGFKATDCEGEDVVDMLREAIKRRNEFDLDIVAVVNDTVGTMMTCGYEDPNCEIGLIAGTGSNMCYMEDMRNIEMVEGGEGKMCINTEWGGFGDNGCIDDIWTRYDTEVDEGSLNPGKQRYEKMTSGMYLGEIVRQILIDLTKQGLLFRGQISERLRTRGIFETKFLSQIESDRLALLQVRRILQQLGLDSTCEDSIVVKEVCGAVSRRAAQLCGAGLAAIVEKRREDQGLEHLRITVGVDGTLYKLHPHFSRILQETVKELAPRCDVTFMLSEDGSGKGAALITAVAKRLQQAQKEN

[3] = target: T2, Hexokinase-1 (Homo sapiens, UniProt P19367); experiment: hexokinase 1 activity inhibitors, potency – biochemical, set 2, resazurin fluorescence coupled readout, selectivity assay for HKDC1 inhibitor project, SAR follow-up (AID 588356); assay type: functional
T2 sequence (P19367 whole entry): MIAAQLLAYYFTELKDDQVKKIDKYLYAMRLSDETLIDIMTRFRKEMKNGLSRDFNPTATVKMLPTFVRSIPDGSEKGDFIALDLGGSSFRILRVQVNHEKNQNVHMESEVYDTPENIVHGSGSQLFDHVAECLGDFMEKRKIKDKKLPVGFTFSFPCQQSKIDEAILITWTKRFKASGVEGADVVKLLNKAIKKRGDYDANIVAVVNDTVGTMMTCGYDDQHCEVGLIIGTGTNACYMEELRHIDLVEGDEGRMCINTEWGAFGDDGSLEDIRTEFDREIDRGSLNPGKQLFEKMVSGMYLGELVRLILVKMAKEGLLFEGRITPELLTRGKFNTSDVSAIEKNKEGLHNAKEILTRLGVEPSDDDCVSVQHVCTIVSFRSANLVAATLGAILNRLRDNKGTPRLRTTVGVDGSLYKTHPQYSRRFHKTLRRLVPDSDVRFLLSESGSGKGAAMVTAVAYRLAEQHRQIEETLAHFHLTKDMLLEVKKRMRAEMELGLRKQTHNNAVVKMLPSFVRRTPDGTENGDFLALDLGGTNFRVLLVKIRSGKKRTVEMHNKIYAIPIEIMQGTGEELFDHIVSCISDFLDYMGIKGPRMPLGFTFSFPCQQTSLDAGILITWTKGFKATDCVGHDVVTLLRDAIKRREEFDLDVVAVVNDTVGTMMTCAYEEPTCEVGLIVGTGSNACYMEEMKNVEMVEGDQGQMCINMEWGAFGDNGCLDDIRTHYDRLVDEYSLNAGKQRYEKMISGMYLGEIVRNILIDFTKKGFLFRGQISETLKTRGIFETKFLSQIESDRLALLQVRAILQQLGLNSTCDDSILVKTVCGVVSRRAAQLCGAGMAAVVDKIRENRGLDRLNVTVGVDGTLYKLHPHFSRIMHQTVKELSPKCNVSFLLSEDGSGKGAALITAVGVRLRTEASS

[4] = target: T1, Hexokinase HKDC1; experiment: SAR analysis of small molecule inhibitors of hexokinase domain containing I (HKDC1) - Set 3. [Related pubchem assays (depositor defined):AID493160, AID493190]; assay type: functional
[5] = target: T2, Hexokinase-1; experiment: SAR analysis of small molecule inhibitors of hexokinase domain containing I (HKDC1) in the hexokinase 1 selectivity assay. [Related pubchem assays (depositor defined):AID493160, AID493190]; assay type: functional
[6] = target: T1, Hexokinase HKDC1; experiment: SAR analysis of small molecule inhibitors of hexokinase domain containing I (HKDC1). [Related pubchem assays (depositor defined):AID493160, AID493190]; assay type: functional
[7] = target: T1, Hexokinase HKDC1; experiment: analog inhibition of human HKDC1 activity – biochemical, set 2, SAR follow-up (AID 588355); assay type: functional
[8] = target: RNA-editing ligase 1, mitochondrial (Trypanosoma brucei brucei, UniProt P86926); experiment: inhibition of trypanosome RNA editing ligase – biochemical, fluorescence, Trypanosoma brucei, dose response (AID 1117295); assay type: functional
Sequence of RNA-editing ligase 1, mitochondrial (P86926 whole entry): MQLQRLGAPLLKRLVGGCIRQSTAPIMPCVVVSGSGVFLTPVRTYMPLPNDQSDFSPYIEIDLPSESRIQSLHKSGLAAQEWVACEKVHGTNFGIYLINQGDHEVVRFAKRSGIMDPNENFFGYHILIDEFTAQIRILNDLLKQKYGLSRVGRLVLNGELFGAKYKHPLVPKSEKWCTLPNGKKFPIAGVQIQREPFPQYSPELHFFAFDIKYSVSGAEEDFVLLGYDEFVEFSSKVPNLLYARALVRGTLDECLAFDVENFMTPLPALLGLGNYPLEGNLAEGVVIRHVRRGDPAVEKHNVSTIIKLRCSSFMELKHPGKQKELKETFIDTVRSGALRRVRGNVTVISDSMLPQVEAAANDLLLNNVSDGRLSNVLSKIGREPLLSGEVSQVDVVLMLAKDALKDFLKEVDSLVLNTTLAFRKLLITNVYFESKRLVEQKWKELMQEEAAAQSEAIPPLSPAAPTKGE

[9] = target: T3, Cytochrome P450 1A2 (Homo sapiens, UniProt P05177);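 also: PubChem cytochrome P450 panel assay, CYP1A2 panel member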
T3 sequence (P05177 whole entry): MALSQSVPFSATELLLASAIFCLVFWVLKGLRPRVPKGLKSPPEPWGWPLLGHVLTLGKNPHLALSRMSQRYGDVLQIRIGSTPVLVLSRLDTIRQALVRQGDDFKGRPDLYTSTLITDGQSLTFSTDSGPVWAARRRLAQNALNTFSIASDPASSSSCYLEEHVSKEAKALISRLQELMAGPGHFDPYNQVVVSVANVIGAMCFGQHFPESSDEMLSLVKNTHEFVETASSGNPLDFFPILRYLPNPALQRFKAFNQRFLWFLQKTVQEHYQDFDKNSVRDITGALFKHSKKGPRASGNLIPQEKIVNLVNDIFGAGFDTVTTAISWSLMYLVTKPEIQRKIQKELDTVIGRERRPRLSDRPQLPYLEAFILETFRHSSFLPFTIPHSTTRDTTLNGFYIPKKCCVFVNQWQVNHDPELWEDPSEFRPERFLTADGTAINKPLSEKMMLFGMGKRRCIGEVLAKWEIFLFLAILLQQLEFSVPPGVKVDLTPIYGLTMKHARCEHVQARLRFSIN

[10] = target: Cytochrome P450 2C9 (Homo sapiens, UniProt P11712)
Sequence of Cytochrome P450 2C9 (P11712 whole entry): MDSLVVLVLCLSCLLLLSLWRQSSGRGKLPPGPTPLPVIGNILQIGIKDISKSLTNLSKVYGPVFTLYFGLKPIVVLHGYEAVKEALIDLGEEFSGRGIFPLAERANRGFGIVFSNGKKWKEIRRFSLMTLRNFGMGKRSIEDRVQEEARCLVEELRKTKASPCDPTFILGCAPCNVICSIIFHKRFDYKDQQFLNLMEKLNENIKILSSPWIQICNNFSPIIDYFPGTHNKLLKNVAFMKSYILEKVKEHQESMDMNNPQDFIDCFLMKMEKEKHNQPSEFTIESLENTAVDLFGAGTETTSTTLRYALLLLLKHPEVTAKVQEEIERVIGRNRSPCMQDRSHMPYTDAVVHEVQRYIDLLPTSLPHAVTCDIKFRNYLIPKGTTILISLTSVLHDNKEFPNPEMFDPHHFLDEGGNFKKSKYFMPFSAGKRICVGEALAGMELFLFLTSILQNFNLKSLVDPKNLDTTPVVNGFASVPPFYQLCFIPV

[11] = target: Platelet-activating factor acetylhydrolase (Mus musculus, UniProt Q60963); experiment: Late stage assay provider results from the probe development effort to identify inhibitors of plasma platelet activating factor acetylhydrolase (pPAFAH): fluorescence-based dose response biochemical gel-based competitive Activity-Based Protein Profiling (ABPP) assay for HTS compounds. [Related pubchem assays (depositor defined):AID463082, AID463092, AID463230, AID588474]; assay type: cell-free
Sequence of Platelet-activating factor acetylhydrolase (Q60963 whole entry): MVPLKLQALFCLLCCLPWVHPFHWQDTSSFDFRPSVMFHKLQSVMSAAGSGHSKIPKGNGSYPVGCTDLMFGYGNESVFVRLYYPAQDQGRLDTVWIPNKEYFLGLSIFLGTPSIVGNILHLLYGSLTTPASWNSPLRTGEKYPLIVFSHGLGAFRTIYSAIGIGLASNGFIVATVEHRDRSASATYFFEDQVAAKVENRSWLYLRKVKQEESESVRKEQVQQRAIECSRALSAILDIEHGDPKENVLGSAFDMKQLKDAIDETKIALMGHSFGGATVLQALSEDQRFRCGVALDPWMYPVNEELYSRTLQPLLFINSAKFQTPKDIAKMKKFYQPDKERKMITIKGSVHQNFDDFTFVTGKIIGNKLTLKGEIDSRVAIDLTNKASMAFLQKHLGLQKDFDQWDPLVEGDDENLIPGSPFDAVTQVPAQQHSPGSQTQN

[12] = test system: CHO-K1; experiment: (§1) Counterscreen for antagonists of the orexin 1 receptor (OX1R; HCRTR1): Homogeneous time resolved fluorescence (HTRF)-based cell-based dose response assay to identify antagonists of the parental CHO-K1 cell line. [Related pubchem assays (depositor defined):AID434989, AID435008, AID463079, AID485270, AID492963, AID492964, AID492965, AID493232, AID504699, AID504701]; assay type: functional; conditions: Cricetulus griseus
[13] = as §1, with “Fluorescence-based” for “Homogeneous time resolved fluorescence (HTRF)-based”, “cell-based high throughput” for “cell-based”, “CHO” for “CHO-K1”; assay type: functional
[14] = target: T4, Orexin/Hypocretin receptor type 1 (Homo sapiens, UniProt O43613); experiment: Homogeneous Time Resolved Fluorescence (HTRF)-based cell-based high throughput dose response assay for antagonists of the orexin 1 receptor (OX1R; HCRTR1). [Related pubchem assays (depositor defined):AID434989, AID435008, AID463079, AID485270, AID492963, AID492964, AID492965, AID493232, AID504717, AID504718]; assay type: functional
T4 sequence (O43613 whole entry): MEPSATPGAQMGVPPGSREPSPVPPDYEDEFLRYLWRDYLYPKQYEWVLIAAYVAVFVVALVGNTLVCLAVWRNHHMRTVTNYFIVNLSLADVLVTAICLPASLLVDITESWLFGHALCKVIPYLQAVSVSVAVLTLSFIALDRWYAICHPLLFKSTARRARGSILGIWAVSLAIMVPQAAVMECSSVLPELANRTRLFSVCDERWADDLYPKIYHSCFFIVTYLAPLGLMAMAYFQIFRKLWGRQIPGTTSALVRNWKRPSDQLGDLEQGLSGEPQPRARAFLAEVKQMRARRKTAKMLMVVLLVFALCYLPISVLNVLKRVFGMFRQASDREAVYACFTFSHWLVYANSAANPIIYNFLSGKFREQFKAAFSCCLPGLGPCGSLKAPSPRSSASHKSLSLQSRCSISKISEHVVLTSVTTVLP

[15] = target: T4, Orexin/Hypocretin receptor type 1; experiment: Fluorescence-based cell-based high throughput dose response assay for antagonists of the orexin 1 receptor (OX1R; HCRTR1). [Related pubchem assays (depositor defined):AID434989, AID435008, AID463079, AID485270, AID492963, AID492964, AID492965, AID493232, AID504717, AID504718]; assay type: functional
[16] = target: T5, Orexin receptor type 2 (Homo sapiens, UniProt O43614); experiment: Counterscreen assay for antagonists of the orexin 1 receptor (OX1R; HCRTR1): Fluorescence-based cell-based dose response assay for antagonists of the orexin 2 receptor (OX2R; HCRTR2), run by assay provider.; assay type: functional
T5 sequence (O43614 whole entry): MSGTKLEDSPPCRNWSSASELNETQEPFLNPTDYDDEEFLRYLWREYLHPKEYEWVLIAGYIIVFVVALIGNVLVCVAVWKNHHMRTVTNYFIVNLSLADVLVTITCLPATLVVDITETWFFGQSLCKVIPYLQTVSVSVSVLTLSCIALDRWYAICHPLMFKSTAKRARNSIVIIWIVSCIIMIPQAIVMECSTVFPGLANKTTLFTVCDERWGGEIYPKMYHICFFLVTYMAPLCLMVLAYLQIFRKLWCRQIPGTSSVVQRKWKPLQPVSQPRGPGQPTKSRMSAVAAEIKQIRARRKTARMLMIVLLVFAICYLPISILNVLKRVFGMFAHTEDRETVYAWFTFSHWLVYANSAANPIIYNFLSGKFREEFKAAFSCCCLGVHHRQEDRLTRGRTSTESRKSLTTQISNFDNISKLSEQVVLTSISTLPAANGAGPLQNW

[17] = target: T5, Orexin receptor type 2; experiment: Counterscreen assay for antagonists of the orexin 1 receptor (OX1R; HCRTR1): Homogeneous Time Resolved Fluorescence (HTRF)-based cell-based dose response assay for antagonists of the orexin 2 receptor (OX2R; HCRTR2), run by assay provider.; assay type: functional
[18] = disruptors of CAL PDZ reporter peptide binding – biochemical, fluorescence polarization, untagged CAL PDZ, dry powder, dose response (AID 602255); assay type: functional
[19] = target: Cystic fibrosis transmembrane conductance regulator/Golgi-associated PDZ and coiled-coil motif-containing protein (Homo sapiens, UniProt P13569+Q9HD26); experiment: disruption of CAL PDZ–reporter peptide interaction – biochemical, fluorescence polarization, Cer-tagged CAL PDZ, dry powder, dose response (AID 602253); assay type: functional
Sequence of Cystic fibrosis transmembrane conductance regulator/Golgi-associated PDZ and coiled-coil motif-containing protein (P13569 whole entry, other chains not shown): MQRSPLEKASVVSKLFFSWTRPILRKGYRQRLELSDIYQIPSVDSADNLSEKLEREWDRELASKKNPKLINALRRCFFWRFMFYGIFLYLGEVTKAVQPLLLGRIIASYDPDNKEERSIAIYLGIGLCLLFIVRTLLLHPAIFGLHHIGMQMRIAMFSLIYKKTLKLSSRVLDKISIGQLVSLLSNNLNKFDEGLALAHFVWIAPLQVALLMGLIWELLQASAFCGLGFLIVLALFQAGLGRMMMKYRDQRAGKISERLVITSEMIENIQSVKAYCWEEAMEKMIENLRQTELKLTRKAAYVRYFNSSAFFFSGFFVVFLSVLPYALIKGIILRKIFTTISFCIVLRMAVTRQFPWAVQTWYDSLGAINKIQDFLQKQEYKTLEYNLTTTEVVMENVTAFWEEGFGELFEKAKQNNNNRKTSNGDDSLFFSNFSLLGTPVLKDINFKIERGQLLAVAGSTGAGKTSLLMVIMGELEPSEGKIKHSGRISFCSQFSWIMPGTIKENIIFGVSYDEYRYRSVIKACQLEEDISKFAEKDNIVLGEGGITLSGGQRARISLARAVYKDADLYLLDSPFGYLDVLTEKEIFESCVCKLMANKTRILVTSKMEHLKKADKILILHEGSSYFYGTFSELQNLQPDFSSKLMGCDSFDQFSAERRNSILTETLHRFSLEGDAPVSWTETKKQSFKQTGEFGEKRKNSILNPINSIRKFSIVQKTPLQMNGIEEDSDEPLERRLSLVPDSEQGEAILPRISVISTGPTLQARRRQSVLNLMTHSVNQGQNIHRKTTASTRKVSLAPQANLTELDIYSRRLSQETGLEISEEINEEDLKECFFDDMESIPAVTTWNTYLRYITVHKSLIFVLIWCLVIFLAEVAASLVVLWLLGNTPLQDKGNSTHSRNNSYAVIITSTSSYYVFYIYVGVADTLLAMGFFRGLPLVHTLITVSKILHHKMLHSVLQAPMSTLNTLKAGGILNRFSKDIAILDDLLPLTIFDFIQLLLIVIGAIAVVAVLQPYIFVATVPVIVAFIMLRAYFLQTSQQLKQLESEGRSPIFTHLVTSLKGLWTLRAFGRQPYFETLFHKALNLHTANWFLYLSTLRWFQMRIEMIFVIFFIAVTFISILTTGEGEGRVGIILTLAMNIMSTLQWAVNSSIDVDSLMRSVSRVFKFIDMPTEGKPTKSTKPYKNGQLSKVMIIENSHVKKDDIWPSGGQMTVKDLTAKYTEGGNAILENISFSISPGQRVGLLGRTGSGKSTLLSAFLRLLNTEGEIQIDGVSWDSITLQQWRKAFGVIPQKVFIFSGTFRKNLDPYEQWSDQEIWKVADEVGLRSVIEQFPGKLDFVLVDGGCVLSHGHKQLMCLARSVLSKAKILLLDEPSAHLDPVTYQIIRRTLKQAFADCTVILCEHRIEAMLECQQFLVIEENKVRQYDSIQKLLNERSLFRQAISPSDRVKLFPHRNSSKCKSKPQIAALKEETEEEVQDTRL

[20] = target: Eukaryotic elongation factor 2 kinase (Homo sapiens, UniProt O00418); assay type: functional
Sequence of Eukaryotic elongation factor 2 kinase (O00418 whole entry, canonical isoform): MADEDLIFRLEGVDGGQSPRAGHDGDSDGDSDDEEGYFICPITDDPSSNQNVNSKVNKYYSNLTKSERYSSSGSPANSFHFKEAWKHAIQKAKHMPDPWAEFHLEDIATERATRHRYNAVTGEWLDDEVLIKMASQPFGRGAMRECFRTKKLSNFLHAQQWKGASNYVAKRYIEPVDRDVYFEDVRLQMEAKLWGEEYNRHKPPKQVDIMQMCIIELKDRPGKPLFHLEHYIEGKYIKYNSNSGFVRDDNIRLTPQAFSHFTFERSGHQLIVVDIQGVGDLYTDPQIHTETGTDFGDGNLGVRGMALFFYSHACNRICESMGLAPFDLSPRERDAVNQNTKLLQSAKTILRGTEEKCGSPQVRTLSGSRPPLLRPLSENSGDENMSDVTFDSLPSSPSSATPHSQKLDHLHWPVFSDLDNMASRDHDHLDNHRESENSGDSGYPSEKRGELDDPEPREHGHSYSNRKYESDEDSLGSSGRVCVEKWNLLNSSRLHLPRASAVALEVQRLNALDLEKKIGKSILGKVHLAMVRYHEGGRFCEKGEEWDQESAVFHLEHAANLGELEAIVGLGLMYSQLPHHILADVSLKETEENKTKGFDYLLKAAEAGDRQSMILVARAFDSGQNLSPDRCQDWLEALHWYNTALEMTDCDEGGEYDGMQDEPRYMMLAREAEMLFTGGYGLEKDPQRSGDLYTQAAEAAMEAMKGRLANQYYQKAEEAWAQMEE

[21] = target: Casein kinase I isoform delta (Homo sapiens, UniProt P48730); assay type: functional;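 also: measured as one member (CSNK1D) of a kinome panel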
Sequence of Casein kinase I isoform delta (P48730 whole entry, canonical isoform): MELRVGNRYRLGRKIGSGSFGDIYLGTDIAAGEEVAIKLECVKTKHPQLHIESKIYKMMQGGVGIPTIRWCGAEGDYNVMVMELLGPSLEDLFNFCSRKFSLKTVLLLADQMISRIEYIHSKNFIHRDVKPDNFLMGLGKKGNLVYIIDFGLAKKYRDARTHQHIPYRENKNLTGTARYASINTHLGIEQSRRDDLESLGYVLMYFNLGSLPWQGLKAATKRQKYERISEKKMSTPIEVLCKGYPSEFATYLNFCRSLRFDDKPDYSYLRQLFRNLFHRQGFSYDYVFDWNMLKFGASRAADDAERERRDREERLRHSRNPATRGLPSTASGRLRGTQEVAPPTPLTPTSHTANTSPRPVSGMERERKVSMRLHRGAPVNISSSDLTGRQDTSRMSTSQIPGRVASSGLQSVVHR

[22] = target: DNA dC->dU-editing enzyme APOBEC-3G (Homo sapiens, UniProt Q9HC16); experiment: inhibition of APOBEC3G ssDNA deamination – biochemical, fluorescence, single-stranded DNA substrate, SAR follow-up (AID 602136); assay type: functional; conditions: read-out: IC50_Mean
Sequence of DNA dC->dU-editing enzyme APOBEC-3G (Q9HC16 whole entry): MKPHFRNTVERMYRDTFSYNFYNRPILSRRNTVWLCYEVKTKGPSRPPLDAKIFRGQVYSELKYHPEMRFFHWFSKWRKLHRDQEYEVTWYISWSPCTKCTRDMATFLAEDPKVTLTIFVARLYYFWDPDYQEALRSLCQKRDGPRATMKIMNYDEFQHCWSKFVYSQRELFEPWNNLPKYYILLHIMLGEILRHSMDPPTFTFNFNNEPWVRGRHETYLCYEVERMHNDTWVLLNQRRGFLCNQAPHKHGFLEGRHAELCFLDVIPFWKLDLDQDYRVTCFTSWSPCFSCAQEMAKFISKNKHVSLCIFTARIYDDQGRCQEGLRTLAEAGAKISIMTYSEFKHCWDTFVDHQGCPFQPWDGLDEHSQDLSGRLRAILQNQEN

[23] = target: DNA dC->dU-editing enzyme APOBEC-3A (Homo sapiens, UniProt P31941); experiment: SAR analysis of small molecule inhibitors of APOBEC3A DNA Deaminase via a fluorescence-based single-stranded DNA deaminase assay.; assay type: functional; conditions: read-out: IC50_Mean
[24] = target: Serine/threonine-protein kinase pim-1 (Homo sapiens, UniProt P11309); assay type: functional
[25] = target: Mitogen-activated protein kinase kinase kinase kinase 4 (Homo sapiens, UniProt O95819); assay type: functional

- IC50 [1]: 9.21 µM (active)
- IC50 [2]: 8.47 µM (active)
- IC50 [3]: > 80 µM (inactive)
- IC50 [4]: > 80 µM (inactive) and 12.1 µM (active)
- IC50 [5]: > 80 µM (inactive)
- IC50 [6]: 12.4 µM (active)
- IC50 [7]: > 80 µM (inactive) and 11.7 µM (active)
- IC50 [8]: 14.7 µM (inactive)
- AC50 [9]: 35.5 µM (inconclusive)
- AC50 [10]: 7.94 µM (inconclusive)
Structure (SMILES): COc1cc2c(cc1OC)-c1cc(NCc3ccccn3)nc(=O)n1CC2

- IC50 [11]: 469 nM (active)
Structure (SMILES): O=C(Oc1ccc(-c2ccccc2)cc1)N1CCOCC1

- AC50 [19]: 41.5 µM (active)
Structure (SMILES): CCc1ccc(S(=O)(=O)/N=C2\C=C(SC3=NCN=N3)C(=O)c3ccccc32)cc1
- AC50 [18]: 44.5 µM (active)

Second part, the molecule before the results:

Structure (SMILES): Cc1cccc(OCCSc2nc3ccccc3n2CCC(=O)O)c1
- IC50 [12]: > 66.2 µM (inactive)
- IC50 [13]: > 49.8 µM (inactive)
- IC50 [14]: 1.57 µM (active)
- IC50 [15]: 19.6 µM (inactive)
- IC50 [16]: 88.2 µM (inactive)
- IC50 [17]: > 50 µM (inactive)

Structure (SMILES): CNC1CC2OC(C)(C1OC)n1c3ccccc3c3c4c(c5c6ccccc6n2c5c31)C(=O)NC4 (stereo not given)
- Ki [20]: > 1 µM (inactive)
- Ki [21]: > 2.51 µM (inactive)

Structure (SMILES): Cc1nnc(NC(=O)C2(c3ccc(F)cc3)CCC2)s1
- IC50 [22]: > 99 µM (inactive)
- IC50 [23]: > 99 µM (inactive)

Structure (SMILES): Clc1ccc(OCC2CN(Cc3c[nH]c4ncccc34)CCO2)cc1 (stereo not given)
- Ki [24]: 2 µM (active)
- Ki [25]: 1.26 µM (active)
